# Measurements: ChEMBL document CHEMBL3885881, “DrugMatrix”
# Species: Rattus norvegicus
# Assay: DrugMatrix - Regimen: Daily Repeat
# Assay type: toxicity, organism-based, Sprague-Dawley
# Set-up: regimen Daily Repeat, gender Male, age 6-8 weeks
# Conditions: in vivo, po, route oral GAVAGE, vehicle 100 % WATER; for ABSOLUTE BASOPHIL / ABSOLUTE EOSINOPHIL / ABSOLUTE LYMPHOCYTE / ABSOLUTE MONOCYTE / ABSOLUTE SEGMENTED NEUTROPHIL / BASOPHIL / EOSINOPHIL / ERYTHROCYTE COUNT / HEMATOCRIT / HEMOGLOBIN / LEUKOCYTE COUNT / LYMPHOCYTE / MEAN CORPUSCULAR HEMOGLOBIN / MEAN CORPUSCULAR HEMOGLOBIN CONCENTRATION / MEAN CORPUSCULAR VOLUME / MONOCYTE / NEUTROPHIL / NUCLEATED RED BLOOD CELLS / PLATELET COUNT: tissue Blood; for ALANINE AMINOTRANSFERASE / ALBUMIN / ALKALINE PHOSPHATASE / ASPARTATE AMINOTRANSFERASE / BLOOD UREA NITROGEN / CARBON DIOXIDE / CHLORIDE / CHOLESTEROL / CREATINE PHOSPHOKINASE / CREATININE / GLUCOSE / LACTATE DEHYDROGENASE / LIPASE / PHOSPHORUS / POTASSIUM / SODIUM / TOTAL BILIRUBIN / TOTAL PROTEIN / URIC ACID: tissue Plasma
# [1] = 28 mg/kg, 120 h, dose level Low, time 5 day
# [2] = 100 mg/kg, 72 h, dose level High, time 3 day
# [3] = 100 mg/kg, 120 h, dose level High, time 5 day
compound,measurement,setting,value
Cn1cc[nH]c1=S [METHIMAZOLE],ABSOLUTE BASOPHIL,[1],0 CELLS/uL
same,ABSOLUTE EOSINOPHIL,[1],0 CELLS/uL
same,ABSOLUTE LYMPHOCYTE,[1],6311.33 CELLS/uL
same,ABSOLUTE MONOCYTE,[1],62 CELLS/uL
same,ABSOLUTE SEGMENTED NEUTROPHIL,[1],560 CELLS/uL
same,BASOPHIL,[1],0%
same,EOSINOPHIL,[1],0%
same,ERYTHROCYTE COUNT,[1],5.37 x10E6/uL
same,HEMATOCRIT,[1],33.8%
same,HEMOGLOBIN,[1],13.17 G/DL
same,LEUKOCYTE COUNT,[1],6.93 x10E3/uL
same,LYMPHOCYTE,[1],90.67%
same,MEAN CORPUSCULAR HEMOGLOBIN,[1],24.57 pg
same,MEAN CORPUSCULAR HEMOGLOBIN CONCENTRATION,[1],38.93 G/DL
same,MEAN CORPUSCULAR VOLUME,[1],63.03 fL
same,MONOCYTE,[1],0.67%
same,NEUTROPHIL,[1],8.67%
same,NUCLEATED RED BLOOD CELLS,[1],0.33 /100WBC
same,PLATELET COUNT,[1],1274.33 x10E3/uL
same,ALANINE AMINOTRANSFERASE,[1],41.33 u/L
same,ALBUMIN,[1],4.13 G/DL
same,ALKALINE PHOSPHATASE,[1],368.67 u/L
same,ASPARTATE AMINOTRANSFERASE,[1],68.67 u/L
same,BLOOD UREA NITROGEN,[1],19.67 mg/dL
same,CARBON DIOXIDE,[1],30.33 mmol/L
same,CHLORIDE,[1],101 MEQ/L
same,CHOLESTEROL,[1],101.33 mg/dL
same,CREATINE PHOSPHOKINASE,[1],173 u/L
same,CREATININE,[1],0.18 mg/dL
same,GLUCOSE,[1],143.67 mg/dL
same,LACTATE DEHYDROGENASE,[1],143.67 u/L
same,LIPASE,[1],9 u/L
same,PHOSPHORUS,[1],10.27 mg/dL
same,POTASSIUM,[1],4.87 MEQ/L
same,SODIUM,[1],144.47 MEQ/L
same,TOTAL BILIRUBIN,[1],0.17 mg/dL
same,TOTAL PROTEIN,[1],6.43 G/DL
same,URIC ACID,[1],0.53 mg/dL
same,ABSOLUTE BASOPHIL,[2],0 CELLS/uL
same,ABSOLUTE EOSINOPHIL,[2],0 CELLS/uL
same,ABSOLUTE LYMPHOCYTE,[2],13500.67 CELLS/uL
same,ABSOLUTE MONOCYTE,[2],119.33 CELLS/uL
same,ABSOLUTE SEGMENTED NEUTROPHIL,[2],980 CELLS/uL
same,BASOPHIL,[2],0%
same,EOSINOPHIL,[2],0%
same,ERYTHROCYTE COUNT,[2],5.56 x10E6/uL
same,HEMATOCRIT,[2],35.97%
same,HEMOGLOBIN,[2],14.1 G/DL
same,LEUKOCYTE COUNT,[2],14.6 x10E3/uL
same,LYMPHOCYTE,[2],92.67%
same,MEAN CORPUSCULAR HEMOGLOBIN,[2],25.4 pg
same,MEAN CORPUSCULAR HEMOGLOBIN CONCENTRATION,[2],39.2 G/DL
same,MEAN CORPUSCULAR VOLUME,[2],64.73 fL
same,MONOCYTE,[2],1%
same,NEUTROPHIL,[2],6.33%
same,NUCLEATED RED BLOOD CELLS,[2],0.67 /100WBC
same,PLATELET COUNT,[2],1423.33 x10E3/uL
same,ALANINE AMINOTRANSFERASE,[2],46.33 u/L
same,ALBUMIN,[2],4.03 G/DL
same,ALKALINE PHOSPHATASE,[2],326.67 u/L
same,ASPARTATE AMINOTRANSFERASE,[2],72 u/L
same,BLOOD UREA NITROGEN,[2],11 mg/dL
same,CARBON DIOXIDE,[2],26 mmol/L
same,CHLORIDE,[2],103 MEQ/L
same,CHOLESTEROL,[2],84.67 mg/dL
same,CREATINE PHOSPHOKINASE,[2],581 u/L
same,CREATININE,[2],0.17 mg/dL
same,GLUCOSE,[2],154.33 mg/dL
same,LACTATE DEHYDROGENASE,[2],228.33 u/L
same,LIPASE,[2],9 u/L
same,PHOSPHORUS,[2],11.6 mg/dL
same,POTASSIUM,[2],6.41 MEQ/L
same,SODIUM,[2],143.17 MEQ/L
same,TOTAL BILIRUBIN,[2],0.17 mg/dL
same,TOTAL PROTEIN,[2],5.97 G/DL
same,URIC ACID,[2],1.63 mg/dL
same,ABSOLUTE BASOPHIL,[3],0 CELLS/uL
same,ABSOLUTE EOSINOPHIL,[3],40.33 CELLS/uL
same,ABSOLUTE LYMPHOCYTE,[3],11963 CELLS/uL
same,ABSOLUTE MONOCYTE,[3],169.33 CELLS/uL
same,ABSOLUTE SEGMENTED NEUTROPHIL,[3],727.33 CELLS/uL
same,BASOPHIL,[3],0%
same,EOSINOPHIL,[3],0.33%
same,ERYTHROCYTE COUNT,[3],5.44 x10E6/uL
same,HEMATOCRIT,[3],33.7%
same,HEMOGLOBIN,[3],13.17 G/DL
same,LEUKOCYTE COUNT,[3],12.9 x10E3/uL
same,LYMPHOCYTE,[3],93%
same,MEAN CORPUSCULAR HEMOGLOBIN,[3],24.23 pg
same,MEAN CORPUSCULAR HEMOGLOBIN CONCENTRATION,[3],39.1 G/DL
same,MEAN CORPUSCULAR VOLUME,[3],61.97 fL
same,MONOCYTE,[3],1.33%
same,NEUTROPHIL,[3],5.33%
same,NUCLEATED RED BLOOD CELLS,[3],0 /100WBC
same,PLATELET COUNT,[3],1288.67 x10E3/uL
same,ALANINE AMINOTRANSFERASE,[3],33.33 u/L
same,ALBUMIN,[3],3.97 G/DL
same,ALKALINE PHOSPHATASE,[3],316.33 u/L
same,ASPARTATE AMINOTRANSFERASE,[3],51.33 u/L
same,BLOOD UREA NITROGEN,[3],17.33 mg/dL
same,CARBON DIOXIDE,[3],21 mmol/L
same,CHLORIDE,[3],104.67 MEQ/L
same,CHOLESTEROL,[3],79.67 mg/dL
same,CREATINE PHOSPHOKINASE,[3],460 u/L
same,CREATININE,[3],0.19 mg/dL
same,GLUCOSE,[3],165.33 mg/dL
same,LACTATE DEHYDROGENASE,[3],433 u/L
same,LIPASE,[3],11.33 u/L
same,PHOSPHORUS,[3],10.1 mg/dL
same,POTASSIUM,[3],5.88 MEQ/L
same,SODIUM,[3],143.5 MEQ/L
same,TOTAL BILIRUBIN,[3],0.2 mg/dL
same,TOTAL PROTEIN,[3],6.17 G/DL
same,URIC ACID,[3],1.43 mg/dL
